Experimental data taken from patent publication US9228089B2, “Polyester polyamine and polyester polyquaternary ammonium corrosion inhibitors” (AKZO NOBEL CHEMICALS INTERNATIONAL B.V., priority 2010, dated 2016).

Columns and labels:
[1] = bubble test, corrosion rate monitored by linear polarization resistance (LPR) in CO2-saturated synthetic Forties brine; settings: 80 ppm active inhibitor, 54° C.
Description: The tests were carried out using the well-known “bubble test” method, see for instance the discussion in NACE International, Vol. 46, No. 5, pp 46-51 (May 2007), where corrosion rate is monitored by linear polarization resistance (LPR). First a baseline corrosion rate in the medium is established, and then corrosion rates with different amounts of inhibitor added are measured.
The detailed conditions for the tests were as follows: • Temperature 54° C. • CO2 CO2 Saturated at ambient pressure (˜0.9 bara partial pressure) • Liquids 100% Typical “Forties” (North Sea water) synthetic brine as shown below: • Chloride=42539 mg/l • Sulphate=0 mg/l • Barium=173 mg/l • Calcium=1979 mg/l • Strontium=351 mg/l • Magnesium=377 mg/l • Sodium=24973 mg/l • Potassium=341 mg/l • Bicarbonate=200 mg/l • Electrode Fabricated from AISI 1018 (UNS G10180), polished to 600 grit finish, degreased rinsed and dried • Inhibitor Concentration 4 hour precorrosion without inhibitor, then dose with 10 ppm of inhibitor and evaluate corrosion rate for at least 8 h, then add inhibitor so that the next level of total inhibitor dosage is reached according to Table 1. After each addition the corrosion rate is measured for at least 8 h. • Gas and partial pressure Ambient pressure test. […]

[2] = example 6 of PCT/EP2010/059325, cited from earlier work

Question: Which “% Protection at 80 ppm” value [1] does the source give for “C12-C16 Cocoalkyl di-methyl benzyl quaternary amine” here?
Answer: Its value is 89.6%.

Question: And the “% protection at 20 ppm” value ([2]; 20 ppm)?
Answer: The value was −28%.

Question: And the “% protection at 50 ppm” value ([2]; 50 ppm)?
Answer: Its value is 38%.
